We go through two molecules from article PMC6201195, “The Xylulose 5-Phosphate/Phosphate Translocator Supports Triose Phosphate, but Not Phosphoenolpyruvate Transport Across the Inner Envelope Membrane of Plastids in Arabidopsis thaliana Mutant Plants” (Frontiers in Plant Science, 2018).

In data set [1] the target is T1, XPT (xylulose 5-phosphate/phosphate translocator) (Arabidopsis thaliana, UniProt Q9LF61).
T1 construct: full-length XPT cDNA, His-tag (pYES-DEST52), expressed in Saccharomyces cerevisiae InvSC; yeast membranes reconstituted into proteoliposomes, tag kept
T1 sequence (Q9LF61 1-417 limits assumed): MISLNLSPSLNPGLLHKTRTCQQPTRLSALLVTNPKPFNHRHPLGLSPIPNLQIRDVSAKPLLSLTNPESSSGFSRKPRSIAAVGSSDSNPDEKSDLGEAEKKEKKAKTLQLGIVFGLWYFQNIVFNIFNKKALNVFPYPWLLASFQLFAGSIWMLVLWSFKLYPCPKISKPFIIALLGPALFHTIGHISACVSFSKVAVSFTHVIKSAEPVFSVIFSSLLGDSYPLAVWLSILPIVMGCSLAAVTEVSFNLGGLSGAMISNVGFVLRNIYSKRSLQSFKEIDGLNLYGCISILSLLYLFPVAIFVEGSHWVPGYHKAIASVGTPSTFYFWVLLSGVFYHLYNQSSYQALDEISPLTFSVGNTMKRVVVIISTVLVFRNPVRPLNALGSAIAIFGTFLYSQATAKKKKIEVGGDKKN
Put plainly: inhibition of homologous […]/[…] exchange in proteoliposomes with reconstituted yeast membranes. Format: biochemical. The note with it: external pH 7.0; 0.14 mM 32Pi; hyperbolic fit; alternative transport substrate.

Substrate in data set [2]: O=P(O)(O)O
Put plainly: cells, lysate or membranes. The conditions noted are these: external pH 7.0, internal pH 7.8; counter-exchange; labelled compound.

Take `C=C(OP(=O)(O)O)C(=O)O` [PEP]: the “Ki(app)” value in data set [1] was 3.76 ± 0.39 mM.

B1: XPT (xylulose 5-phosphate/phosphate translocator) (Arabidopsis thaliana) (protein)
chain: MISLNLSPSLNPGLLHKTRTCQQPTRLSALLVTNPKPFNHRHPLGLSPIPNLQIRDVSAKPLLSLTNPESSSGFSRKPRSIAAVGSSDSNPDEKSDLGEAEKKEKKAKTLQLGIVFGLWYFQNIVFNIFNKKALNVFPYPWLLASFQLFAGSIWMLVLWSFKLYPCPKISKPFIIALLGPALFHTIGHISACVSFSKVAVSFTHVIKSAEPVFSVIFSSLLGDSYPLAVWLSILPIVMGCSLAAVTEVSFNLGGLSGAMISNVGFVLRNIYSKRSLQSFKEIDGLNLYGCISILSLLYLFPVAIFVEGSHWVPGYHKAIASVGTPSTFYFWVLLSGVFYHLYNQSSYQALDEISPLTFSVGNTMKRVVVIISTVLVFRNPVRPLNALGSAIAIFGTFLYSQATAKKKKIEVGGDKKN
By Km is commonly meant the substrate concentration at which the rate is half of its maximum. In the case of B1, the Km in data set [2] worked out at 400 ± 70 µM.
